Some test systems named below: HOP-62 NSCLC; K-562 leukemia; KM12 colon; MCF7 breast; NCI-H460 lung; RPMI-8226 leukemia; SF-268 CNS; SK-MEL-28 melanoma; SNB-75 CNS; TK-10 renal.
Assay in all cases: NCI tumour cell line growth inhibition, 48 h

Each structure is given as a SMILES string. “And” between values parts separate entries of the source, which are not always exact repeats. Equal values may be shown once.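 Results reflect a 48-hour exposure of cells in 96-well plates to compound at five concentrations. Here, GI50 denotes the concentration required for 50% inhibition of growth. TGI: concentration producing complete growth inhibition.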

With `CCN(CC)CCOc1nc2cc(OC)c(OC)cc2c2c1-c1ccc(OC)cc1C2=O`, the GI50 in the assay with HOP-62 NSCLC was 10 µM; with K-562 leukemia, 2.06 µM; with KM12 colon, 1.51 µM; in the assay with MCF7 breast it was 0.697 µM; in the assay with NCI-H460 lung it was 1.22 µM; in the assay on RPMI-8226 leukemia, 3.26 µM. In addition, the GI50 in the assay on SF-268 CNS was 4.93 µM; in the assay on SK-MEL-28 melanoma, 21.5 µM; in the assay on SNB-75 CNS it was 16.8 µM; in the assay with TK-10 renal it was 16.1 µM. For the same molecule, the TGI was 22.2 µM with HOP-62 NSCLC; 5.01 µM in the assay with K-562 leukemia; 2.87 µM with KM12 colon; 17.3 µM with MCF7 breast; 2.72 µM in the assay on NCI-H460 lung; 19.6 µM with RPMI-8226 leukemia. The TGI came out at 21.9 µM in the assay on SF-268 CNS, 36.4 µM in the assay with SK-MEL-28 melanoma, 33.1 µM in the assay with SNB-75 CNS and 29.6 µM in the assay with TK-10 renal.

For `CC[C@H](C)[C@H](NC(=O)c1nccn1C)C(=O)N(C)[C@H](C[C@@H](OC(C)=O)c1nc(C(=O)N[C@@H](Cc2ccccc2)C[C@H](C)C(=O)OC)cs1)C(C)C`, the GI50 with HOP-62 NSCLC was 1.42 µM; in the assay on K-562 leukemia, 0.796 µM; with KM12 colon, 0.553 µM; in the assay on MCF7 breast, 0.187 µM; in the assay on NCI-H460 lung it was 1.22 µM; in the assay on RPMI-8226 leukemia, 0.531 µM. Besides, the GI50 with SF-268 CNS is 1.43 µM; in the assay with SK-MEL-28 melanoma, 5.05 µM; in the assay with SNB-75 CNS, 0.199 µM; with TK-10 renal, 7.49 µM. The TGI in the assay with HOP-62 NSCLC is greater than 33.3 µM; in the assay on K-562 leukemia, greater than 33.3 µM; in the assay with KM12 colon, greater than 33.3 µM; in the assay on MCF7 breast, greater than 33.3 µM; in the assay with NCI-H460 lung, greater than 33.3 µM; in the assay on RPMI-8226 leukemia, 12.1 µM. The TGI with SF-268 CNS, with SK-MEL-28 melanoma, with SNB-75 CNS and in the assay with TK-10 renal was greater than 33.3 µM each time.

`COc1ccc(/C=C/c2cnc3ccccc3n2)cc1OC`: the TGI with HOP-62 NSCLC, with K-562 leukemia, in the assay on KM12 colon, in the assay on MCF7 breast, in the assay with NCI-H460 lung and in the assay with RPMI-8226 leukemia was greater than 100 µM throughout. The TGI in the assay on SF-268 CNS, with SK-MEL-28 melanoma, in the assay on SNB-75 CNS and in the assay on TK-10 renal was greater than 100 µM throughout.

On to `O=c1oc2cc(OS(=O)(=O)c3ccccc3)ccc2c2c1CCCCC2`, for which the GI50 in the assay with HOP-62 NSCLC was greater than 100 µM; in the assay on K-562 leukemia, 4.06 µM; with MCF7 breast it was 5.14 µM; in the assay on NCI-H460 lung it was 4.27 µM; with RPMI-8226 leukemia, 3.58 µM; in the assay on SF-268 CNS it was greater than 100 µM. For the same molecule, the GI50 in the assay with SK-MEL-28 melanoma is greater than 100 µM; with SNB-75 CNS, 16.9 µM; with TK-10 renal it was greater than 100 µM. Also, the TGI in the assay on HOP-62 NSCLC, in the assay on K-562 leukemia, in the assay with MCF7 breast, with NCI-H460 lung, with RPMI-8226 leukemia and with SF-268 CNS was greater than 100 µM each time. For the same molecule, the TGI in the assay on SK-MEL-28 melanoma, with SNB-75 CNS and in the assay with TK-10 renal was greater than 100 µM in each case.

Regarding `CC(C)(F)C[C@H](N[C@@H](c1ccc(-c2ccc(S(C)(=O)=O)cc2)cc1)C(F)(F)F)C(=O)NC1(C#N)CC1`, the GI50 in the assay with HOP-62 NSCLC was 12.2 µM and 22.6 µM; with K-562 leukemia, greater than 100 µM; in the assay with KM12 colon, greater than 100 µM; in the assay on MCF7 breast, 35 µM and > 100 µM; in the assay on NCI-H460 lung, 33.6 µM and 49.7 µM; in the assay on RPMI-8226 leukemia, greater than 100 µM. The GI50 with SF-268 CNS is 22 µM and 18.8 µM; in the assay with SK-MEL-28 melanoma, 49.1 µM and 36.3 µM; in the assay with SNB-75 CNS it was 7.51 µM and 16.4 µM; in the assay on TK-10 renal, > 55 µM and 31.1 µM. Moreover, the TGI is 40.7 µM and 53.5 µM in the assay with HOP-62 NSCLC; greater than 100 µM in the assay with K-562 leukemia; greater than 100 µM with KM12 colon; 55 µM and > 100 µM with MCF7 breast; 55 µM and > 100 µM in the assay on NCI-H460 lung; greater than 100 µM with RPMI-8226 leukemia. The TGI with SF-268 CNS is 55 µM and 48.9 µM; with SK-MEL-28 melanoma it was 55 µM and > 100 µM; in the assay with SNB-75 CNS it was 29.8 µM and 39.4 µM; in the assay with TK-10 renal, > 55 µM and 81.2 µM.

Take `Cc1ccc(/C=C2\CN(Cc3cn(CCNc4ccnc5cc(Cl)ccc45)nn3)C/C(=C\c3ccc(C)cc3)C2=O)cc1`: the GI50 in the assay on HOP-62 NSCLC is 1.96 µM; in the assay on KM12 colon, 1.65 µM; in the assay with MCF7 breast, 1.62 µM; with NCI-H460 lung, 1.54 µM; in the assay on RPMI-8226 leukemia it was 1.82 µM; in the assay on SF-268 CNS, 2.04 µM. For the same molecule, the GI50 in the assay on SK-MEL-28 melanoma was 1.74 µM; in the assay with SNB-75 CNS it was 1.61 µM; in the assay with TK-10 renal, 1.91 µM. In addition, the TGI in the assay with HOP-62 NSCLC is 3.47 µM; with KM12 colon, 3.28 µM; in the assay with MCF7 breast, 3.46 µM; in the assay on NCI-H460 lung it was 3.38 µM; in the assay with RPMI-8226 leukemia, 4.98 µM; with SF-268 CNS, 4.2 µM. Moreover, the TGI in the assay with SK-MEL-28 melanoma was found to be 3.26 µM; with SNB-75 CNS, 3.53 µM; in the assay on TK-10 renal, 3.36 µM.

On to `N=C1C(c2nc(-c3ccc(Br)cc3)cs2)=C(O)CN1CC1CCCO1` (configuration not stated), for which the GI50 in the assay with HOP-62 NSCLC, in the assay with K-562 leukemia, in the assay on KM12 colon, with MCF7 breast, with RPMI-8226 leukemia and in the assay on SF-268 CNS was greater than 100 µM each time. The GI50 in the assay on SK-MEL-28 melanoma was greater than 100 µM; with SNB-75 CNS it was 7.13 µM; in the assay on TK-10 renal it was greater than 100 µM. For the same molecule, the TGI in the assay on HOP-62 NSCLC, with K-562 leukemia, in the assay with KM12 colon, in the assay on MCF7 breast, in the assay on RPMI-8226 leukemia and with SF-268 CNS was greater than 100 µM throughout. Besides, the TGI in the assay with SK-MEL-28 melanoma, in the assay on SNB-75 CNS and in the assay with TK-10 renal was greater than 100 µM throughout.

In the case of `CC1(C)N=C(N)N=C(N)N1c1ccc(OCCCCNC(=O)c2ccc(S(=O)(=O)F)cc2)c(Cl)c1`, the GI50 in the assay on HOP-62 NSCLC is 68.3 µM; with K-562 leukemia it was 0.562 µM; in the assay on KM12 colon, 8.04 µM; in the assay with MCF7 breast it was 3.9 µM; in the assay with NCI-H460 lung, 2.1 µM; in the assay with RPMI-8226 leukemia, 6.39 µM. The GI50 with SF-268 CNS was 6.21 µM; with SK-MEL-28 melanoma, 54.1 µM; in the assay with SNB-75 CNS, 16.5 µM. For the same molecule, the TGI with HOP-62 NSCLC, with K-562 leukemia, in the assay with KM12 colon, in the assay on MCF7 breast, with NCI-H460 lung and in the assay with RPMI-8226 leukemia was greater than 100 µM throughout. Also, the TGI in the assay on SF-268 CNS, with SK-MEL-28 melanoma and with SNB-75 CNS was greater than 100 µM in each case.

Source of the values: PubChem BioAssay (NCI).
